Data as given in the supplement of paper PMC10307832.

Legend:
Assay in all cases: relative viability (nuclei count vs DMSO), 5 days (fraction); higher = more cells survive
KIN001-266 + Bortezomib = compound: CCN1CCC(CC1)N2C=C(N=N2)CNC3=CC4=C(C(=CN=C4C(=C3)Cl)C#N)NC5=CC(=C(C=C5)F)Cl [KIN001-266] + CC(C)C[C@H](NC(=O)[C@H](Cc1ccccc1)NC(=O)c1cnccn1)B(O)O [Bortezomib] (partner 0.002 µM)
Outline: (§1)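 For relative viability, nuclei counts in treated wells were divided by those in vehicle wells. Lung cancer cell lines had been pin-tool dosed in 1536-well plates the day after seeding and cultured for 5 days, then fixed and stained in one step (final 0.05% Triton X-100, 1% formaldehyde, 1 ug/ml Hoechst) and imaged at 4×. Doses were one drug alone or a fixed anchor-drug dose plus five library-drug doses (not always all listed) in √10 steps, and values are duplicate-plate medians.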

KIN001-266 + Luminespib = compound: CCN1CCC(CC1)N2C=C(N=N2)CNC3=CC4=C(C(=CN=C4C(=C3)Cl)C#N)NC5=CC(=C(C=C5)F)Cl [KIN001-266] + CCNC(=O)c1noc(-c2cc(C(C)C)c(O)cc2O)c1-c1ccc(CN2CCOCC2)cc1 [Luminespib] (partner 0.01 µM)
Outline: as §1

KIN001-266 + Palbociclib = compound: CCN1CCC(CC1)N2C=C(N=N2)CNC3=CC4=C(C(=CN=C4C(=C3)Cl)C#N)NC5=CC(=C(C=C5)F)Cl [KIN001-266] + CC(=O)c1c(C)c2cnc(Nc3ccc(N4CCNCC4)cn3)nc2n(C2CCCC2)c1=O [Palbociclib] (partner 0.5 µM)
Outline: as §1

KIN001-266 + Dasatinib = compound: CCN1CCC(CC1)N2C=C(N=N2)CNC3=CC4=C(C(=CN=C4C(=C3)Cl)C#N)NC5=CC(=C(C=C5)F)Cl [KIN001-266] + Cc1nc(Nc2ncc(C(=O)Nc3c(C)cccc3Cl)s2)cc(N2CCN(CCO)CC2)n1 [Dasatinib] (partner 0.075 µM)
Outline: as §1

| Cell Line | relative viability (KIN001-266 + Bortezomib; first compound 0.08 µM) | relative viability (KIN001-266 + Bortezomib; first compound 0.253 µM) | relative viability (KIN001-266 + Bortezomib; first compound 0.8 µM) | relative viability (KIN001-266 + Bortezomib; first compound 2.53 µM) | relative viability (KIN001-266 + Bortezomib; first compound 8 µM) | relative viability (KIN001-266 + Luminespib; first compound 0.08 µM) | relative viability (KIN001-266 + Luminespib; first compound 0.253 µM) | relative viability (KIN001-266 + Luminespib; first compound 0.8 µM) | relative viability (KIN001-266 + Luminespib; first compound 2.53 µM) | relative viability (KIN001-266 + Luminespib; first compound 8 µM) | relative viability (KIN001-266 + Palbociclib; first compound 0.08 µM) | relative viability (KIN001-266 + Palbociclib; first compound 0.253 µM) | relative viability (KIN001-266 + Palbociclib; first compound 0.8 µM) | relative viability (KIN001-266 + Palbociclib; first compound 2.53 µM) | relative viability (KIN001-266 + Palbociclib; first compound 8 µM) | relative viability (KIN001-266 + Dasatinib; first compound 0.08 µM) | relative viability (KIN001-266 + Dasatinib; first compound 0.253 µM) | relative viability (KIN001-266 + Dasatinib; first compound 0.8 µM) | relative viability (KIN001-266 + Dasatinib; first compound 2.53 µM) | relative viability (KIN001-266 + Dasatinib; first compound 8 µM) |
| --- | --- | --- | --- | --- | --- | --- | --- | --- | --- | --- | --- | --- | --- | --- | --- | --- | --- | --- | --- | --- |
| COR-L 105 | 0.886 | 0.884 | 0.719 | 0.768 | 0.602 | 0.616 | 0.802 | 0.758 | 0.743 | 1.02 | 0.399 | 0.386 | 0.376 | 0.407 | 0.436 | 0.373 | 0.419 | 0.343 | 0.377 | 0.326 |
| LK-2 | – | – | – | – | – | 0.204 | 0.16 | 0.191 | 0.187 | 0.168 | 0.794 | 0.691 | 0.797 | 0.589 | 0.67 | 0.361 | 0.256 | 0.237 | 0.269 | 0.22 |
| NCI-H727 | 0.843 | 0.893 | 0.889 | 0.864 | 0.514 | 0.359 | 0.316 | 0.346 | 0.246 | 0.514 | 0.683 | 0.617 | 0.642 | 0.671 | 0.729 | 0.473 | 0.468 | 0.323 | 0.342 | 0.261 |
| RERF-LC-KJ | 1.11 | 1.23 | 1.08 | 1.01 | 0.82 | 1.31 | 1.23 | 1.14 | 1.16 | 0.739 | 1.14 | 1.07 | 1.13 | 1.11 | 0.83 | 0.951 | 0.922 | 0.757 | 0.725 | 0.417 |
| NCI-H2023 | 1.08 | 1.1 | 1.2 | 1.03 | 0.76 | 0.738 | 0.698 | 0.764 | 0.696 | 0.865 | 0.333 | 0.383 | 0.388 | 0.289 | 0.288 | 0.608 | 0.555 | 0.63 | 0.526 | 0.533 |
| NCI-H322M | 1.16 | 1.43 | 1.34 | 1.23 | 1.18 | 0.86 | 0.576 | 1.05 | 0.83 | 0.926 | 0.455 | 0.479 | 0.477 | 0.387 | 0.448 | 0.272 | 0.27 | 0.265 | 0.238 | 0.242 |
| NCI-H1666 | 1.03 | 0.826 | 0.668 | 0.785 | 0.686 | 0.982 | 0.993 | 1.02 | 0.951 | 0.923 | 0.61 | 0.668 | 0.601 | 0.664 | 0.655 | 0.798 | 0.811 | 0.784 | 0.833 | 0.804 |
| NCI-H1648 | – | – | – | – | – | – | – | – | – | – | 0.298 | 0.277 | 0.277 | 0.281 | 0.261 | – | – | – | – | – |
| NCI-H2087 | 0.761 | 0.87 | 0.717 | 0.719 | 0.609 | 0.199 | 0.156 | 0.173 | 0.165 | 0.184 | 0.241 | 0.308 | 0.267 | 0.26 | 0.242 | 0.914 | 0.887 | 0.866 | 0.87 | 0.472 |
| LU99A | 1.31 | 1.17 | 1.11 | 1.02 | 0.982 | 0.265 | 0.216 | 0.217 | 0.243 | 0.228 | 0.441 | 0.413 | 0.358 | 0.373 | 0.364 | 0.726 | 0.514 | 0.505 | 0.428 | 0.425 |
| HCC-366 | 1.04 | 1.06 | 0.996 | 0.998 | 1.01 | – | – | – | – | – | 0.425 | 0.371 | 0.302 | 0.407 | 0.403 | 0.783 | 0.591 | 0.627 | 0.656 | 0.656 |
| EKVX | 1.12 | 1 | 1.01 | 1.06 | 1.01 | 0.86 | 0.869 | 0.735 | 0.89 | 0.986 | 0.402 | 0.406 | 0.403 | 0.391 | 0.367 | 0.468 | 0.519 | 0.549 | 0.533 | 0.406 |
| NCI-H522 | – | – | – | – | – | 1.09 | 1.19 | 0.99 | 0.912 | 1.05 | 1.04 | 1.07 | 0.952 | 0.95 | 0.804 | 0.919 | 0.918 | 0.853 | 0.862 | 0.934 |
| NCI-H1755 | 0.956 | 0.972 | 0.847 | 0.918 | 0.884 | 0.339 | 0.799 | 0.389 | 0.445 | 0.418 | 0.43 | 0.447 | 0.432 | 0.443 | 0.413 | 0.415 | 0.387 | 0.471 | 0.478 | 0.451 |
| NCI-H647 | 1 | 1.03 | 1.14 | 1.07 | 0.935 | 0.162 | 0.138 | 0.419 | 0.179 | 0.153 | 0.432 | 0.399 | 0.428 | 0.479 | 0.351 | 0.249 | 0.268 | 0.181 | 0.152 | 0.15 |
| LC-2-ad | 0.954 | 0.948 | 1.02 | 1.03 | 0.956 | 0.943 | 1.19 | 1.13 | 1.06 | 0.931 | 0.535 | 0.527 | 0.484 | 0.499 | 0.478 | 0.661 | 0.533 | 0.626 | 0.8 | 0.632 |
| NCI-H1793 | – | – | – | – | – | 0.231 | 0.436 | 0.171 | 0.194 | 0.196 | 0.316 | 0.358 | – | 0.354 | 0.307 | 0.332 | 0.389 | 0.391 | 0.329 | 0.369 |
